These are literature values, as cited in patent US7423042B2, “Compounds” (Glaxo Group Limited, priority 2005, dated 2008).

Data set [1] has as its system TGF-β-induced increases in fibronectin and thrombospondin. The settings on record: Laping et al., 2002.
In data set [2] the test system is synthesis of pro-inflammatory proteins including IL-6, IL-8, GM-CSF, RANTES and COX-2. The settings on record: a number of different cell types.

`COc1nccc(-c2c(-c3ccc(F)cc3)ncn2C2CCNCC2)n1` [SB-242235]: in data set [1], the “inhibition of TGF-β-induced increases in fibronectin and thrombospondin” value is listed as “inhibited”.

On to `Fc1ccc(-c2nc3n(c2-c2ccncc2)CCS3)cc1` [SK&F 86002], for which the “decreasing the synthesis of pro-inflammatory proteins (IL-6, IL-8, GM-CSF, RANTES, COX-2)” value in data set [2] is reported as “effective”.

For the molecule `C[S+]([O-])c1ccc(-c2nc(-c3ccncc3)c(-c3ccc(F)cc3)[nH]2)cc1` (stereo not drawn) [SB-203580], the “decreasing the synthesis of pro-inflammatory proteins (IL-6, IL-8, GM-CSF, RANTES, COX-2)” value in data set [2] was “effective”.
